Results taken from ChEMBL document CHEMBL1671731, “Fluoroquinolone efflux by the plasmid-mediated multidrug efflux pump QacB variant QacBIII in Staphylococcus aureus” (2010).
In brackets after ≈: the same amount, converted by molar mass. Activity calls are given as the source filed them. The calls are words filed in the database; no cut-off is given here.

How the values were obtained:
Staphylococcus aureus [1] = assay: Antimicrobial activity against Staphylococcus aureus RDN1 harboring cloned pTZ2162-encoded QacBIII gene by agar dilution method; type: functional
Staphylococcus aureus [2] = assay: Antimicrobial activity against Staphylococcus aureus RDN1 harboring cloned pTZ2162-encoded QacBIII E320A mutant gene by agar dilution method; type: functional
Staphylococcus aureus [3] = assay: Antimicrobial activity against Staphylococcus aureus RDN1 harboring cloned pTZ2396-encoded QacA gene by agar dilution method; type: functional
Staphylococcus aureus [4] = assay: Antimicrobial activity against Staphylococcus aureus RDN1 harboring cloned pTZ2238-encoded QacBIV A19T mutant gene by agar dilution method; type: functional
Staphylococcus aureus [5] = assay: Antimicrobial activity against Staphylococcus aureus RDN1 harboring cloned pTZN10 containing cat and bla genes by agar dilution method; type: functional
Staphylococcus aureus [6] = assay: Antimicrobial activity against Staphylococcus aureus RDN1 harboring cloned pTZ2238-encoded QacBIV E377G mutant gene by agar dilution method; type: functional
Staphylococcus aureus [7] = assay: Antimicrobial activity against Staphylococcus aureus RDN1 harboring cloned pTZ2182-encoded QacBII gene by agar dilution method; type: functional
Staphylococcus aureus [8] = assay: Antimicrobial activity against Staphylococcus aureus RDN1 harboring cloned pTZ2238-encoded QacBIV gene by agar dilution method; type: functional
Staphylococcus aureus [9] = assay: Antimicrobial activity against Staphylococcus aureus RDN1 harboring cloned pTZ2238-encoded QacBIV A184V mutant gene by agar dilution method; type: functional
Staphylococcus aureus [10] = assay: Antimicrobial activity against Staphylococcus aureus RDN1 harboring cloned pTZ2238-encoded QacBIV S151I mutant gene by agar dilution method; type: functional
[11] = Activity of antiseptic efflux protein QacBIII expressed in Staphylococcus aureus RDN1 assessed as decrease in compound accumulation
[12] = Activity of antiseptic efflux protein QacBIII expressed in Staphylococcus aureus RDN1 assessed as decrease in compound accumulation in presence of CCCP

N=C(NCCCCCCNC(=N)NC(=N)Nc1ccc(Cl)cc1)NC(=N)Nc1ccc(Cl)cc1.O=C(O)[C@H](O)[C@@H](O)[C@H](O)[C@H](O)CO
MIC (Staphylococcus aureus [1]): 2 µg/mL
MIC (Staphylococcus aureus [2]): 4 µg/mL
MIC (Staphylococcus aureus [3]): 2 µg/mL
MIC (Staphylococcus aureus [4]): 4 µg/mL
MIC (Staphylococcus aureus [5]): 0.25 µg/mL
MIC (Staphylococcus aureus [6]): 2 µg/mL
MIC (Staphylococcus aureus [7]): 4 µg/mL
MIC (Staphylococcus aureus [8]): 4 µg/mL
MIC (Staphylococcus aureus [9]): 4 µg/mL
MIC (Staphylococcus aureus [10]): 4 µg/mL

C[C@H]1COc2c(N3CCN(C)CC3)c(F)cc3c(=O)c(C(=O)O)cn1c23.C[C@H]1COc2c(N3CCN(C)CC3)c(F)cc3c(=O)c(C(=O)O)cn1c23.O [LEVOFLOXACIN]
MIC (Staphylococcus aureus [1]): 0.25 µg/mL
MIC (Staphylococcus aureus [2]): 0.25 µg/mL
MIC (Staphylococcus aureus [3]): 0.25 µg/mL
MIC (Staphylococcus aureus [5]): 0.25 µg/mL
MIC (Staphylococcus aureus [7]): 0.25 µg/mL
MIC (Staphylococcus aureus [8]): 0.25 µg/mL

[Cl-].c1ccc([P+](c2ccccc2)(c2ccccc2)c2ccccc2)cc1 [TETRAPHENYLPHOSPHONIUM CHLORIDE]
MIC (Staphylococcus aureus [1]): 512 µg/mL
MIC (Staphylococcus aureus [2]): 256 µg/mL
MIC (Staphylococcus aureus [3]): 256 µg/mL
MIC (Staphylococcus aureus [4]): 512 µg/mL
MIC (Staphylococcus aureus [5]): 4 µg/mL
MIC (Staphylococcus aureus [6]): 512 µg/mL
MIC (Staphylococcus aureus [7]): 256 µg/mL
MIC (Staphylococcus aureus [8]): 512 µg/mL
MIC (Staphylococcus aureus [9]): 512 µg/mL
MIC (Staphylococcus aureus [10]): 512 µg/mL

CC[n+]1c(-c2ccccc2)c2cc(N)ccc2c2ccc(N)cc21.[Br-] [HOMIDIUM BROMIDE]
MIC (Staphylococcus aureus [1]): 256 µg/mL
MIC (Staphylococcus aureus [2]): ≥ 2050 µg/mL
MIC (Staphylococcus aureus [3]): ≥ 2050 µg/mL
MIC (Staphylococcus aureus [4]): ≥ 2050 µg/mL
MIC (Staphylococcus aureus [5]): 1 µg/mL
MIC (Staphylococcus aureus [6]): ≥ 2050 µg/mL
MIC (Staphylococcus aureus [7]): ≥ 2050 µg/mL
MIC (Staphylococcus aureus [8]): ≥ 2050 µg/mL
MIC (Staphylococcus aureus [9]): ≥ 2050 µg/mL
MIC (Staphylococcus aureus [10]): ≥ 2050 µg/mL

CC(=O)NCC(=O)O.N=C(N)c1ccc(/N=N/Nc2ccc(C(=N)N)cc2)cc1 [DIMINAZEN ACETURATE]
MIC (Staphylococcus aureus [1]): 1020 µg/mL
MIC (Staphylococcus aureus [2]): 512 µg/mL
MIC (Staphylococcus aureus [3]): 2050 µg/mL
MIC (Staphylococcus aureus [4]): 2050 µg/mL
MIC (Staphylococcus aureus [5]): 4 µg/mL
MIC (Staphylococcus aureus [6]): 512 µg/mL
MIC (Staphylococcus aureus [7]): 512 µg/mL
MIC (Staphylococcus aureus [8]): 2050 µg/mL
MIC (Staphylococcus aureus [9]): 2050 µg/mL
MIC (Staphylococcus aureus [10]): 2050 µg/mL

CCn1cc(C(=O)O)c(=O)c2cc(F)c(N3CCNCC3)cc21 [NORFLOXACIN]
Activity [11]: Active
MIC (Staphylococcus aureus [1]): 0.5 µg/mL (≈ 1.57 µM)
MIC (Staphylococcus aureus [2]): 0.13 µg/mL (≈ 0.407 µM)
Activity [12]: inactive
MIC (Staphylococcus aureus [3]): 0.25 µg/mL (≈ 0.783 µM)
MIC (Staphylococcus aureus [5]): 0.13 µg/mL (≈ 0.407 µM)
MIC (Staphylococcus aureus [7]): 0.13 µg/mL (≈ 0.407 µM)
MIC (Staphylococcus aureus [8]): 0.13 µg/mL (≈ 0.407 µM)

O=C(O)c1cn(C2CC2)c2cc(N3CCNCC3)c(F)cc2c1=O [CIPROFLOXACIN]
Activity [11]: Active
MIC (Staphylococcus aureus [1]): 0.25 µg/mL (≈ 0.754 µM)
MIC (Staphylococcus aureus [2]): 0.06 µg/mL (≈ 0.181 µM)
Activity [12]: inactive
MIC (Staphylococcus aureus [3]): 0.13 µg/mL (≈ 0.392 µM)
MIC (Staphylococcus aureus [5]): 0.06 µg/mL (≈ 0.181 µM)
MIC (Staphylococcus aureus [7]): 0.06 µg/mL (≈ 0.181 µM)
MIC (Staphylococcus aureus [8]): 0.06 µg/mL (≈ 0.181 µM)

CN(C)c1ccc(C(=C2C=CC(=[N+](C)C)C=C2)c2ccc(N(C)C)cc2)cc1.[Cl-] [GENTIAN VIOLET]
MIC (Staphylococcus aureus [1]): 0.5 µg/mL
MIC (Staphylococcus aureus [2]): ≥ 1 µg/mL
MIC (Staphylococcus aureus [3]): ≥ 1 µg/mL
MIC (Staphylococcus aureus [4]): 0.5 µg/mL
MIC (Staphylococcus aureus [5]): 0.13 µg/mL
MIC (Staphylococcus aureus [6]): ≥ 1 µg/mL
MIC (Staphylococcus aureus [7]): ≥ 1 µg/mL
MIC (Staphylococcus aureus [8]): 0.5 µg/mL
MIC (Staphylococcus aureus [9]): 0.5 µg/mL
MIC (Staphylococcus aureus [10]): 0.5 µg/mL

N=C(N)c1ccc(OCCCCCOc2ccc(C(=N)N)cc2)cc1.O=S(=O)(O)CCO
MIC (Staphylococcus aureus [1]): 512 µg/mL
MIC (Staphylococcus aureus [2]): 512 µg/mL
MIC (Staphylococcus aureus [3]): 512 µg/mL
MIC (Staphylococcus aureus [4]): 1020 µg/mL
MIC (Staphylococcus aureus [5]): 1 µg/mL
MIC (Staphylococcus aureus [6]): 512 µg/mL
MIC (Staphylococcus aureus [7]): 512 µg/mL
MIC (Staphylococcus aureus [8]): 1020 µg/mL
MIC (Staphylococcus aureus [9]): 1020 µg/mL
MIC (Staphylococcus aureus [10]): 1020 µg/mL

C[n+]1c2cc(N)ccc2cc2ccc(N)cc21.[Cl-] [EUFLAVINE]
MIC (Staphylococcus aureus [1]): 256 µg/mL
MIC (Staphylococcus aureus [2]): 1020 µg/mL
MIC (Staphylococcus aureus [3]): 1020 µg/mL
MIC (Staphylococcus aureus [4]): 1020 µg/mL
MIC (Staphylococcus aureus [5]): 1 µg/mL
MIC (Staphylococcus aureus [6]): 1020 µg/mL
MIC (Staphylococcus aureus [7]): 1020 µg/mL
MIC (Staphylococcus aureus [8]): 1020 µg/mL
MIC (Staphylococcus aureus [9]): 1020 µg/mL
MIC (Staphylococcus aureus [10]): 1020 µg/mL
